Laboratory results taken from patent US10780092B2, “Fused pyrazine derivatives useful as soluble guanylate cyclase stimulators” (Merck Sharp & Dohme Corp., priority 2016, dated 2020).

Tests used:
sGC α1/β1 heterodimer = sGC α1/β1 heterodimer (Homo sapiens (Human), UniProt Q02108+Q02153); assay: Cell-based sGC functional assay (CASA assay), cGMP by HTRF; conditions: CHO-K1/sGC cells; for Emax: CHO-K1, cGMP production as percentage of maximum of compound A (set to 100%), read-out: % Activation; for EC50: inflection point of cGMP production, 4P fit, read-out: IP
Procedure, shortened: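 cGMP made in CHO-K1/sGC (human α1/β1) cells is read by HTRF after compound treatment for 1 hr at 37° C, following 30 min at 25° C with or without 1 μM DETA-NO; IBMX 0.5 mM present. Values are % of standard compound maximum; 4P fit.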

[1] = biological target: human recombinant sGC enzyme (Homo sapiens (Human), UniProt Q02108+Q02153); assay: SEC competition binding assay with [3H] Compound B radioligand; conditions: displacement of 1.6 nM [3H] Compound B, 24 h at 37° C.
Procedure, shortened: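 Competition format: [3H] Compound B (1.6 nM) displaced from human recombinant sGC over 24 h at 37° C. in triethanolamine pH 7.4 buffer with MgCl2, BSA, DTT, 300 μM DETA/NO and 400 μM GTP (1% DMSO). Gel-filtration eluates counted by liquid scintillation; 1 μM Compound B defined non-specific binding; Ki by one-site fit.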

CC1(c2ccc(F)c(O)c2)C(=O)Nc2nc(-c3cn4ccnc4c(CCC4CCCCC4)n3)nc(N)c21 (stereo not drawn) [Example 86-B, 4-Amino-2-(8-(2-cyclohexylethyl)imidazo[1,2-a]pyrazin-6-yl)-5-(4-fluoro-3-hydroxyphenyl)-5-methyl-5,7-dihydro-6H-pyrrolo[2,3-d]pyrimidin-6-one]
Emax (sGC α1/β1 heterodimer): 122%
EC50 (sGC α1/β1 heterodimer): 0.166 µM
Ki [1]: 0.00222 µM

CC1(c2ccc(Cl)c(O)c2)C(=O)Nc2nc(-c3cn4ncnc4c(CCCC(F)(F)F)n3)nc(N)c21 (stereo not drawn) [Example 87-A, 4-Amino-5-(4-chloro-3-hydroxyphenyl)-5-methyl-2-(8-(4,4,4-trifluorobutyl)-[1,2,4]triazolo[1,5-a]pyrazin-6-yl)-5,7-dihydro-6H-pyrrolo[2,3-d]pyrimidin-6-one]
Emax (sGC α1/β1 heterodimer): 111%
EC50 (sGC α1/β1 heterodimer): 0.935 µM
Ki [1]: 0.0028 µM

CC1(c2ccc(O)c(Cl)c2)C(=O)Nc2nc(-c3cn4ccnc4c(CC4CCCCC4)n3)nc(N)c21 (stereo not drawn) [Example 89-B, 4-Amino-5-(3-chloro-4-hydroxyphenyl)-2-(8-(cyclohexylmethyl)imidazo[1,2-a]pyrazin-6-yl)-5-methyl-5,7-dihydro-6H-pyrrolo[2,3-d]pyrimidin-6-one]
Emax (sGC α1/β1 heterodimer): 127%
EC50 (sGC α1/β1 heterodimer): 0.809 µM
Ki [1]: 0.000823 µM

CC1(c2ccc(Cl)c(O)c2)C(=O)Nc2nc(-c3cn4ccnc4c(Cc4c(F)cccc4F)n3)nc(N)c21 (stereo not drawn) [Example 90-A, 4-Amino-5-(4-chloro-3-hydroxyphenyl)-2-{8-[(2,6-difluorophenyl)methyl]imidazo[1,2-a]pyrazin-6-yl}-5-methyl-5,7-dihydro-6H-pyrrolo[2,3-d]pyrimidin-6-one]
Emax (sGC α1/β1 heterodimer): 138%
EC50 (sGC α1/β1 heterodimer): 0.094 µM
Ki [1]: 0.00243 µM

CC1(c2ccc(Cl)c(O)c2)C(=O)Nc2nc(-c3cn4ccnc4c(Cc4ccc(F)cc4F)n3)nc(N)c21 (stereo not drawn) [Example 91-A, 4-Amino-5-(4-chloro-3-hydroxyphenyl)-2-{8-[(2,4-difluorophenyl)methyl]imidazo[1,2-a]pyrazin-6-yl}-5-methyl-5,7-dihydro-6H-pyrrolo[2,3-d]pyrimidin-6-one]
Emax (sGC α1/β1 heterodimer): 141%
EC50 (sGC α1/β1 heterodimer): 0.075 µM
Ki [1]: 0.000199 µM

CC1(c2cc(O)c(Cl)cn2)C(=O)Nc2nc(-c3cn4ccnc4c(Cc4ccc(F)cc4)n3)nc(N)c21 (stereo not drawn) [Example 92-B, 4-Amino-5-(5-chloro-4-hydroxypyridin-2-yl)-2-{8-[(4-fluorophenyl)methyl]imidazo[1,2-a]pyrazin-6-yl}-5-methyl-5,7-dihydro-6H-pyrrolo[2,3-d]pyrimidin-6-one]
Emax (sGC α1/β1 heterodimer): 104%
EC50 (sGC α1/β1 heterodimer): 2.86 µM
Ki [1]: 0.000729 µM

CC1(c2ccc(Cl)c(O)c2)C(=O)Nc2nc(-c3cn4ccnc4c(CC4CCC(F)(F)CC4)n3)nc(N)c21 (stereo not drawn) [Example 95-A, 4-Amino-5-(4-chloro-3-hydroxyphenyl)-2-(8-((4,4-difluorocyclohexyl)methyl)imidazo [1,2-a]pyrazin-6-yl)-5-methyl-5,7-dihydro-6H-pyrrolo[2,3-d]pyrimidin-6-one]
Emax (sGC α1/β1 heterodimer): 96%
EC50 (sGC α1/β1 heterodimer): 1.81 µM
Ki [1]: 0.0144 µM

CC1(c2ccc(F)c(Cl)c2O)C(=O)Nc2nc(-c3cn4ccnc4c(Cc4cc(F)cc(F)c4)n3)nc(N)c21 (stereo not drawn) [Example 96-B, 4-Amino-5-(3-chloro-4-fluoro-2-hydroxyphenyl)-2-{8-[(3,5-difluorophenyl)methyl]imidazo[1,2-a]pyrazin-6-yl}-5-methyl-5,7-dihydro-6H-pyrrolo[2,3-d]pyrimidin-6-one]
Emax (sGC α1/β1 heterodimer): 169%
EC50 (sGC α1/β1 heterodimer): 0.138 µM
Ki [1]: 0.000862 µM

CC1(c2cc(O)c(Cl)cn2)C(=O)Nc2nc(-c3cn4ccnc4c(Cc4c(F)cccc4F)n3)nc(N)c21 (stereo not drawn) [Example 98-B, 4-Amino-5-(5-chloro-4-hydroxypyridin-2-yl)-2-{8-[(2,6-difluorophenyl)methyl]imidazo[1,2-a]pyrazin-6-yl}-5-methyl-5,7-dihydro-6H-pyrrolo[2,3-d]pyrimidin-6-one]
Emax (sGC α1/β1 heterodimer): 73%
EC50 (sGC α1/β1 heterodimer): 3.3 µM
Ki [1]: 0.00831 µM

Cc1cn2cc(-c3nc(N)c4c(n3)NC(=O)C4(C)c3ccc(Cl)c(O)c3)nc(Cc3cccc(F)c3)c2n1 (stereo not drawn) [Example 99-A, 4-Amino-5-(4-chloro-3-hydroxyphenyl)-2-{8-[(3-fluorophenyl)methyl]-2-methylimidazo[1,2-a]pyrazin-6-yl}-5-methyl-5,7-dihydro-6H-pyrrolo[2,3-d]pyrimidin-6-one]
Emax (sGC α1/β1 heterodimer): 97%
EC50 (sGC α1/β1 heterodimer): 0.553 µM
Ki [1]: 0.000803 µM

Cc1cn2cc(-c3nc(N)c4c(n3)NC(=O)C4(C)c3ccc(Cl)c(O)c3)nc(Cc3ccccc3F)c2n1 (stereo not drawn) [Example 100-A, 4-Amino-5-(4-chloro-3-hydroxyphenyl)-2-{8-[(2-fluorophenyl)methyl]-2-methylimidazo[1,2-a]pyrazin-6-yl}-5-methyl-5,7-dihydro-6H-pyrrolo[2,3-d]pyrimidin-6-one]
Emax (sGC α1/β1 heterodimer): 106%
EC50 (sGC α1/β1 heterodimer): 0.652 µM
Ki [1]: 0.000544 µM

CC1(c2cc(O)c(C#N)c(F)c2)C(=O)Nc2nc(-c3cn4ccnc4c(Cc4cc(F)ccc4F)n3)nc(N)c21 (stereo not drawn) [Example 101-B, 4-(4-Amino-2-{8-[(2,5-difluorophenyl)methyl]imidazo[1,2-a]pyrazin-6-yl}-5-methyl-6-oxo-6,7-dihydro-5H-pyrrolo[2,3-d]pyrimidin-5-yl)-2-fluoro-6-hydroxybenzonitrile]
Emax (sGC α1/β1 heterodimer): 53%
EC50 (sGC α1/β1 heterodimer): 0.282 µM
Ki [1]: 0.000162 µM

CC1(c2cc(O)c(C#N)c(F)c2)C(=O)Nc2nc(-c3cn4ccnc4c(Cc4cc(F)cc(F)c4F)n3)nc(N)c21 (stereo not drawn) [Example 102-B, 4-(4-Amino-5-methyl-6-oxo-2-{8-[(2,3,5-trifluorophenyl)methyl]imidazo[1,2-a]pyrazin-6-yl}-6,7-dihydro-5H-pyrro1o[2,3-d]pyrimidin-5-yl)-2-fluoro-6-hydroxybenzonitrile]
Emax (sGC α1/β1 heterodimer): 73%
EC50 (sGC α1/β1 heterodimer): 0.382 µM
Ki [1]: 0.000118 µM

CC1(c2cc(O)c(Cl)cn2)C(=O)Nc2nc(-c3cn4ccnc4c(Cc4cc(F)cc(F)c4F)n3)nc(N)c21 (stereo not drawn) [Example 103-B, 4-Amino-5-(5-chloro-4-hydroxypyridin-2-yl)-5-methyl-2-{8-[(2,3,5-trifluorophenyl)methyl]imidazo[1,2-a]pyrazin-6-yl}-5,7-dihydro-6H-pyrrolo[2,3-d]pyrimidin-6-one]
Emax (sGC α1/β1 heterodimer): 78%
EC50 (sGC α1/β1 heterodimer): 0.231 µM
Ki [1]: 0.000175 µM

CC1(c2ccc(Cl)c(O)c2)C(=O)Nc2nc(-c3cn4ncnc4c(CCCCF)n3)nc(N)c21 (stereo not drawn) [Example 106-A, 4-Amino-5-(4-chloro-3-hydroxyphenyl)-2-(8-(4-fluorobutyl)-[1,2,4]triazolo[1,5-a]pyrazin-6-yl)-5-methyl-5,7-dihydro-6H-pyrrolo[2,3-d]pyrimidin-6-one]
Emax (sGC α1/β1 heterodimer): 81%
EC50 (sGC α1/β1 heterodimer): 0.902 µM
Ki [1]: 0.00184 µM

CC1CCC(Cc2nc(-c3nc(N)c4c(n3)NC(=O)C4(C)c3ccc(Cl)c(O)c3)cn3ccnc23)CC1 (stereo not drawn) [Example 108-AA, 4-Amino-5-(4-chloro-3-hydroxyphenyl)-5-methyl-2-{8-[(4-methylcyclo-hexyl)methyl]imidazo-[1,2-a]pyrazin-6-yl}-5,7-dihydro-6H-pyrrolo-[2,3-d]pyrimidin-6-one]
Emax (sGC α1/β1 heterodimer): 118%
EC50 (sGC α1/β1 heterodimer): 0.198 µM
Ki [1]: 0.000924 µM

CC1CCC(Cc2nc(-c3nc(N)c4c(n3)NC(=O)C4(C)c3ccc(Cl)c(O)c3)cn3ccnc23)CC1 (stereo not drawn) [Example 108-AB, 4-Amino-5-(4-chloro-3-hydroxyphenyl)-5-methyl-2-{8-[(4-methylcyclohexyl)methyl]imidazo[1,2-a]pyrazin-6-yl}-5,7-dihydro-6H-pyrrolo[2,3-d]pyrimidin-6-one]
% Activation (sGC α1/β1 heterodimer; cGMP production as percentage of maximum of compound A (set to 100%)): 127%
EC50 (sGC α1/β1 heterodimer): 0.21 µM
Ki [1]: 0.000524 µM

CC1(c2cc(O)ccn2)C(=O)Nc2nc(-c3cn4ncnc4c(Cc4cccc(F)c4)n3)nc(N)c21 (stereo not drawn) [Example 110-B, 4-Amino-2-{8-[(3-fluorophenyl)methyl]-[1,2,4]triazolo[1,5-a]-pyrazin-6-yl}-5-(4-hydroxypyridin-2-yl)-5-methyl-5,7-dihydro-6H-pyrrolo[2,3-d]pyrimidin-6-one]
Emax (sGC α1/β1 heterodimer): 159%
EC50 (sGC α1/β1 heterodimer): 0.437 µM
Ki [1]: 0.00163 µM

CC1(c2nccc(O)c2Cl)C(=O)Nc2nc(-c3cn4ccnc4c(Cc4cc(F)cc(F)c4)n3)nc(N)c21 (stereo not drawn) [Example 111-B, 4-Amino-5-(3-chloro-4-hydroxypyridin-2-yl)-2-{8-[(3,5-difluorophenyl)-methyl]imidazo[1,2-a]-pyrazin-6-yl}-5-methyl-5,7-dihydro-6H-pyrrolo-[2,3-d]pyrimidin-6-one]
Emax (sGC α1/β1 heterodimer): 86%
EC50 (sGC α1/β1 heterodimer): 1.54 µM
Ki [1]: 0.00174 µM

CC1(c2cc(Cl)c(O)c(Cl)c2)C(=O)Nc2nc(-c3cn4ncnc4c(CC4CCCCC4)n3)nc(N)c21 (stereo not drawn) [Example 112-B, 4-Amino-2-(8-(cyclo-hexylmethyl)-[1,2,4]-triazolo[1,5-a]pyrazin-6-yl)-5-(3,5-dichloro-4-hydroxyphenyl)-5-methyl-5,7-dihydro-6H-pyrrolo[2,3-d]pyrimidin-6-one]
Emax (sGC α1/β1 heterodimer): 112%
EC50 (sGC α1/β1 heterodimer): 0.016 µM
Ki [1]: 0.00178 µM

CC1(c2cc(Cl)c(O)c(Cl)c2)C(=O)Nc2nc(-c3cn4ccnc4c(CC4CCCCC4)n3)nc(N)c21 (stereo not drawn) [Example 113-A, 4-Amino-2-(8-(cyclo-hexylmethyl)imidazo-[1,2-a]pyrazin-6-yl)-5-(3,5-dichloro-4-hydroxy-phenyl)-5-methyl-5,7-dihydro-6H-pyrrolo-[2,3-d]-pyrimidin-6-one]
Emax (sGC α1/β1 heterodimer): 91%
EC50 (sGC α1/β1 heterodimer): 0.125 µM
Ki [1]: 0.0029 µM
